Results as given in ChEMBL document CHEMBL1909046, “DrugMatrix in vitro pharmacology data”.

Columns and labels:
[1] = DRUGMATRIX: Glutamate, NMDA, Agonism radioligand binding (ligand: [3H] CGP-39653); format: cell membranes, Rattus norvegicus, Wistar, Cerebral cortex, Membrane; settings: Not Active = under 50% inhibition at 10 µM
[2] = target: T1, C-X-C chemokine receptor type 2 (Homo sapiens, UniProt P25025); format: cell membranes, Membrane; settings: cho-k1; further: in other assays of this panel Not Active means under 50% inhibition at 10 µM
T1 sequence (P25025 whole entry): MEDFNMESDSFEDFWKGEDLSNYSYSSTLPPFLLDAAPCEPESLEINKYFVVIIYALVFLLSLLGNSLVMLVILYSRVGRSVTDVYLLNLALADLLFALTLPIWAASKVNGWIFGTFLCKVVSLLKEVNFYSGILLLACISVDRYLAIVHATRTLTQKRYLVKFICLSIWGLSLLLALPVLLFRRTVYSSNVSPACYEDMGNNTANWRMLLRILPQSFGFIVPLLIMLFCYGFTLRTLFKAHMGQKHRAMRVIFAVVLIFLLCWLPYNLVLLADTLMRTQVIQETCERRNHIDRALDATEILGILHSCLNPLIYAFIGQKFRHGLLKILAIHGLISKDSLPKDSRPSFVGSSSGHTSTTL

[3] = target: T2, Neuropeptide Y receptor type 2 (Homo sapiens, UniProt P49146); format: cell membranes, Membrane; settings: kan-ts; further: in other assays of this panel Not Active means under 50% inhibition at 10 µM
T2 sequence (P49146 whole entry): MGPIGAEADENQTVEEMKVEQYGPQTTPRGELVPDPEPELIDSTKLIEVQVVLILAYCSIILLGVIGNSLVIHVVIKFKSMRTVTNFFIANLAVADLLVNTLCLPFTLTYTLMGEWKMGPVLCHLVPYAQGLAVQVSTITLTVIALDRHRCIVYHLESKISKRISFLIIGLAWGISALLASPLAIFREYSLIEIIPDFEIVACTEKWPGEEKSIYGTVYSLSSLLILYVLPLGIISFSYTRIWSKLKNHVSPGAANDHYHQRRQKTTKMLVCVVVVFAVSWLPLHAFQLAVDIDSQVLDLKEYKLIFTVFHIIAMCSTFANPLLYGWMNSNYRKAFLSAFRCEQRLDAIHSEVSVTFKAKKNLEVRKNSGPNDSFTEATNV

[4] = target: Aldo-keto reductase family 1 member B1 (Rattus norvegicus, UniProt P07943); format: tissue-based, Lens of camera-type eye;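 further: inhibition of aldose reductase enzyme activity, measured with DL-glyceraldehyde as the substrate; in other assays of this panel Not Active means under 50% inhibition at 10 µM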
[5] = target: 5-hydroxytryptamine receptor 1B (Rattus norvegicus, UniProt P28564); format: cell membranes, Wistar, Cerebral cortex, Membrane; further: in other assays of this panel Not Active means under 50% inhibition at 10 µM
[6] = DRUGMATRIX: Phosphodiesterase PDE3 enzyme inhibition (substrate: [3H]cAMP + cAMP); format: tissue-based, Homo sapiens; settings: platelet; Not Active = under 50% inhibition at 10 µM
[7] = DRUGMATRIX: Platelet-Derived Growth Factor (PDGF) radioligand binding (ligand: [125I] PDGF); format: cell-based; settings: nih3t3; Not Active = under 50% inhibition at 10 µM
Histamine H2 receptor = Histamine H2 receptor (Homo sapiens, UniProt P25021); format: cell membranes, CHO-K1, Membrane; settings: cho-k1; further: in other assays of this panel Not Active means under 50% inhibition at 10 µM
[8] = DRUGMATRIX: Glutamate, NMDA, Phencyclidine radioligand binding (ligand: [3H] TCP); format: cell membranes, Rattus norvegicus, Wistar, Cerebral cortex, Membrane; settings: Not Active = under 50% inhibition at 10 µM
Substance-P receptor = Substance-P receptor (Homo sapiens, UniProt P25103); format: cell membranes, CHO, Membrane; settings: cho; further: in other assays of this panel Not Active means under 50% inhibition at 10 µM
Melanocortin receptor 4 = Melanocortin receptor 4 (Homo sapiens, UniProt P32245); format: cell membranes, Membrane; settings: hek293; further: in other assays of this panel Not Active means under 50% inhibition at 10 µM
[9] = DRUGMATRIX: GABAA, Chloride Channel, TBOB radioligand binding (ligand: [3H] TBOB); format: cell membranes, Rattus norvegicus, Wistar, Cerebral cortex, Membrane; settings: Not Active = under 50% inhibition at 10 µM
D(3) dopamine receptor = D(3) dopamine receptor (Homo sapiens, UniProt P35462); assay: DRUGMATRIX: Dopamine D3 radioligand binding (ligand: [3H] Spiperone); format: cell membranes, CHO, Membrane; settings: cho
[10] = DRUGMATRIX: Imidazoline I2, Central radioligand binding (ligand: [3H] Idazoxan); format: cell membranes, Rattus norvegicus, Wistar, Cerebral cortex, Membrane; settings: Not Active = under 50% inhibition at 10 µM
Cytochrome P450 3A4 = Cytochrome P450 3A4 (Homo sapiens, UniProt P08684); settings: bti-tn-5b1-4; further: in other assays of this panel Not Active means under 50% inhibition at 10 µM
Adenosine receptor A1 = target: T3, Adenosine receptor A1 (Homo sapiens, UniProt P30542); format: cell membranes, CHO, Membrane; settings: cho
T3 sequence (P30542 whole entry): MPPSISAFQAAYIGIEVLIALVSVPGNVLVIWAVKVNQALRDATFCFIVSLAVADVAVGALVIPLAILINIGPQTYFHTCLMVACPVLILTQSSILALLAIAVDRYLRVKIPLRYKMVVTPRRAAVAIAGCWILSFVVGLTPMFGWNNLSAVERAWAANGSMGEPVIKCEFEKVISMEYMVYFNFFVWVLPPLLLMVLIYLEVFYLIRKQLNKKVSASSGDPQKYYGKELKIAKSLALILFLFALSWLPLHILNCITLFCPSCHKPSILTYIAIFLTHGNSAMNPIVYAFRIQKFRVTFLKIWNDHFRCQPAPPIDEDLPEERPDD

Histamine H2 receptor, sequence (P25021 whole entry): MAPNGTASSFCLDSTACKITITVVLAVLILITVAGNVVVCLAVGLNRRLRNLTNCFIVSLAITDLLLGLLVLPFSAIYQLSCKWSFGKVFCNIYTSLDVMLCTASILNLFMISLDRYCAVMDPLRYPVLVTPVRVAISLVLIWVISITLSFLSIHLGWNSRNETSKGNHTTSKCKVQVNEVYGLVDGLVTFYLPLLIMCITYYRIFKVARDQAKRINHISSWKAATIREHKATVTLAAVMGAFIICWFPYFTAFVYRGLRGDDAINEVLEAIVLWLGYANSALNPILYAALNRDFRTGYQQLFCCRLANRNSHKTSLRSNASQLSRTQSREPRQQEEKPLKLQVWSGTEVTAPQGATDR
Substance-P receptor, sequence (P25103 whole entry): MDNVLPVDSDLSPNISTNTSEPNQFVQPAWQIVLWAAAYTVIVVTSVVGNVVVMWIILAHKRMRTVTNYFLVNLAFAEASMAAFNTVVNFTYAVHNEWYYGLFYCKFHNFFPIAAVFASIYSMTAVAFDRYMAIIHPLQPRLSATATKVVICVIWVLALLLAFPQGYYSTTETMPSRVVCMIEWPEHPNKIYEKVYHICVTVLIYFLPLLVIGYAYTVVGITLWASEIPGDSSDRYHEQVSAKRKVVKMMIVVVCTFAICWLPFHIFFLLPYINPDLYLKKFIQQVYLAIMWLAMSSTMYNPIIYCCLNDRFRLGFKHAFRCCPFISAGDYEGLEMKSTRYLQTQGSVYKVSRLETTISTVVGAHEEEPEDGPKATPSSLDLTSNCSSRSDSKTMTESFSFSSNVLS
D(3) dopamine receptor, sequence (P35462 whole entry): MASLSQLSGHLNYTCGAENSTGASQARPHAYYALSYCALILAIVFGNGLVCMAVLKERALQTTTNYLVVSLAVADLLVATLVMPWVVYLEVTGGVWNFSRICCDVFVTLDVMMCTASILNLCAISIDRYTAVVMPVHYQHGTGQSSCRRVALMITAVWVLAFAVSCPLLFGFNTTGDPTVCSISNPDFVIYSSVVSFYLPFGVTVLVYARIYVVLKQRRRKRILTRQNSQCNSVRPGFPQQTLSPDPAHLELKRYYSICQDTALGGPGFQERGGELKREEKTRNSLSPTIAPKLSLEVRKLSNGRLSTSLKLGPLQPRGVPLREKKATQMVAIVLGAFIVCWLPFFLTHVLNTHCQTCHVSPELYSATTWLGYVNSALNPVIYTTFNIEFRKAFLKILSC
Cytochrome P450 3A4, sequence (P08684 whole entry): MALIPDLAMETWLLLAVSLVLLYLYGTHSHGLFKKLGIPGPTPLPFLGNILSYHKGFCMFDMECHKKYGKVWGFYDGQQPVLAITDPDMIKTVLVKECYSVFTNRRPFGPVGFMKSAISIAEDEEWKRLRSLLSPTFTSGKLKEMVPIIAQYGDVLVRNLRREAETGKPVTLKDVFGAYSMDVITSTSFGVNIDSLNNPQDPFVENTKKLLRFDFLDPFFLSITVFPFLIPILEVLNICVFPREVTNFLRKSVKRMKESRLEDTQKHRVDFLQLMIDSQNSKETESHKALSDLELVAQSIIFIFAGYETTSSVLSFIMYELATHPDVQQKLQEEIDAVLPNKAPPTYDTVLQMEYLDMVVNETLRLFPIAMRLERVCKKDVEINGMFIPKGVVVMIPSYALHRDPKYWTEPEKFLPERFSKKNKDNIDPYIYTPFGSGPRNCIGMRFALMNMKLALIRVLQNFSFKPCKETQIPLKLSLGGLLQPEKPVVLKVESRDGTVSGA
5-hydroxytryptamine receptor 1B, sequence (P28564 whole entry): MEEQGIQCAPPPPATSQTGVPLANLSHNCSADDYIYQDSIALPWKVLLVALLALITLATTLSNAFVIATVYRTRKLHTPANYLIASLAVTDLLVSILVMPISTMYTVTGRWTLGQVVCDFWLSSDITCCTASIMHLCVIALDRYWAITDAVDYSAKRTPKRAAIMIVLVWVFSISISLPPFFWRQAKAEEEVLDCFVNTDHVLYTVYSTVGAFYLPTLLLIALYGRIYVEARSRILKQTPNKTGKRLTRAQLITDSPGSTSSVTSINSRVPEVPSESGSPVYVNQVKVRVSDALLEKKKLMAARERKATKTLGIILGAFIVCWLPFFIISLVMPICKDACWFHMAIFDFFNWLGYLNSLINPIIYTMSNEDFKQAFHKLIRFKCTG
Melanocortin receptor 4, sequence (P32245 whole entry): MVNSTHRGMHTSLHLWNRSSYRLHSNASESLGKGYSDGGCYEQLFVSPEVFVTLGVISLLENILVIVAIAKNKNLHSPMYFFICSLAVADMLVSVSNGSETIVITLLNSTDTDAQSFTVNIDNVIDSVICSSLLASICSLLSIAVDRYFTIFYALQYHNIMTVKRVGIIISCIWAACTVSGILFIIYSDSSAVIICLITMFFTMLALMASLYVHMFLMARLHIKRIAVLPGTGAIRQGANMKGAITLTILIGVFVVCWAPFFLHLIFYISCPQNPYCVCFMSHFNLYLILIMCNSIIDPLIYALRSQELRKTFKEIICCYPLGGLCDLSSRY

N=C(N)NCCCCNC(=N)N.O=S(=O)(O)O [ARCAINE SULFATE]
Not Active: IC50 [1] | Ki [1] | IC50 [2] | IC50 [3] | IC50 [4] | IC50 [5] | IC50 [6] | Ki [6] | IC50 [7] | Ki [7] | IC50 (Histamine H2 receptor) | IC50 [8] | Ki [8] | IC50 (Substance-P receptor) | IC50 (Melanocortin receptor 4) | IC50 [9] | Ki [9] | IC50 (D(3) dopamine receptor) | IC50 [10] | Ki [10] | IC50 (Cytochrome P450 3A4) | Ki (Cytochrome P450 3A4) | IC50 (Adenosine receptor A1)

CC(=O)OCC(=O)[C@@]1(OC(C)=O)[C@@H](C)C[C@H]2[C@@H]3C[C@H](F)C4=CC(=O)C=C[C@]4(C)[C@@]3(F)[C@@H](O)C[C@@]21C [DIFLORASONE DIACETATE]
Not Active: IC50 [1] | Ki [1] | IC50 [2] | IC50 [3] | IC50 [4] | IC50 [5] | IC50 [6] | Ki [6] | IC50 [7] | Ki [7] | IC50 (Histamine H2 receptor) | IC50 [8] | Ki [8] | IC50 (Substance-P receptor) | IC50 (Melanocortin receptor 4) | IC50 [9] | Ki [9] | IC50 (D(3) dopamine receptor) | IC50 [10] | Ki [10] | IC50 (Cytochrome P450 3A4) | Ki (Cytochrome P450 3A4) | IC50 (Adenosine receptor A1)

CC[N+](CC)(CC)CCOc1cccc(OCC[N+](CC)(CC)CC)c1OCC[N+](CC)(CC)CC.[I-].[I-].[I-] [GALLAMINE TRIETHIODIDE]
Not Active: IC50 [1] | Ki [1] | IC50 [2] | IC50 [3] | IC50 [4] | IC50 [5] | IC50 [6] | Ki [6] | IC50 [7] | Ki [7] | IC50 (Histamine H2 receptor) | IC50 [8] | Ki [8] | IC50 (Substance-P receptor) | IC50 (Melanocortin receptor 4) | IC50 [9] | Ki [9] | IC50 (D(3) dopamine receptor) | IC50 [10] | Ki [10] | IC50 (Cytochrome P450 3A4) | Ki (Cytochrome P450 3A4) | IC50 (Adenosine receptor A1)

c1ccc2c(c1)cc1ccc3cccc4ccc2c1c34
Not Active: IC50 [1] | Ki [1] | IC50 [2] | IC50 [3] | IC50 [4] | IC50 [5] | IC50 [6] | Ki [6] | IC50 [7] | Ki [7] | IC50 (Histamine H2 receptor) | IC50 [8] | Ki [8] | IC50 (Substance-P receptor) | IC50 (Melanocortin receptor 4) | IC50 [9] | Ki [9] | IC50 (D(3) dopamine receptor) | IC50 [10] | Ki [10] | IC50 (Cytochrome P450 3A4) | Ki (Cytochrome P450 3A4) | IC50 (Adenosine receptor A1)

CCOC(=O)c1ccc(N)cc1 [BENZOCAINE]
Not Active: IC50 [1] | Ki [1] | IC50 [2] | IC50 [3] | IC50 [4] | IC50 [5] | IC50 [6] | Ki [6] | IC50 [7] | Ki [7] | IC50 (Histamine H2 receptor) | IC50 [8] | Ki [8] | IC50 (Substance-P receptor) | IC50 (Melanocortin receptor 4) | IC50 [9] | Ki [9] | IC50 (D(3) dopamine receptor) | IC50 [10] | Ki [10] | IC50 (Cytochrome P450 3A4) | Ki (Cytochrome P450 3A4) | IC50 (Adenosine receptor A1)

Oc1cccc2cccnc12 [OXYQUINOLINE]
Not Active: IC50 [1] | Ki [1] | IC50 [2] | IC50 [3] | IC50 [4] | IC50 [5] | IC50 [6] | Ki [6] | IC50 [7] | Ki [7] | IC50 (Histamine H2 receptor) | IC50 [8] | Ki [8] | IC50 (Substance-P receptor) | IC50 (Melanocortin receptor 4) | IC50 [9] | Ki [9] | IC50 (D(3) dopamine receptor) | IC50 [10] | Ki [10] | IC50 (Cytochrome P450 3A4) | Ki (Cytochrome P450 3A4) | IC50 (Adenosine receptor A1)

CCCCCCCCCc1ccc(O)cc1 [4-NONYLPHENOL]
Not Active: IC50 [1] | Ki [1] | IC50 [2] | IC50 [3] | IC50 [4] | IC50 [5] | IC50 [6] | Ki [6] | IC50 [7] | Ki [7] | IC50 (Histamine H2 receptor) | IC50 [8] | Ki [8] | IC50 (Substance-P receptor) | IC50 (Melanocortin receptor 4) | IC50 [9] | Ki [9] | IC50 (D(3) dopamine receptor) | IC50 [10] | Ki [10] | IC50 (Cytochrome P450 3A4) | Ki (Cytochrome P450 3A4) | IC50 (Adenosine receptor A1)

CC(C)(S)[C@@H](N)C(=O)O [PENICILLAMINE]
Not Active: IC50 [1] | Ki [1] | IC50 [2] | IC50 [3] | IC50 [4] | IC50 [5] | IC50 [6] | Ki [6] | IC50 [7] | Ki [7] | IC50 (Histamine H2 receptor) | IC50 [8] | Ki [8] | IC50 (Substance-P receptor) | IC50 (Melanocortin receptor 4) | IC50 [9] | Ki [9] | IC50 (D(3) dopamine receptor) | IC50 [10] | Ki [10] | IC50 (Cytochrome P450 3A4) | Ki (Cytochrome P450 3A4) | IC50 (Adenosine receptor A1)
